From paper PMC9587021, “Construction of a bioluminescence-based assay for bitter taste receptors (TAS2Rs)” (Scientific Reports, 2022)
Like-named read-outs stand apart in the source and are kept apart here.

Legend:
Assay in all cases: cell-based
TAS2R46 [1] = target: T1, TAS2R46 (Homo sapiens, UniProt P59540); design: species or system AD-293; bioluminescence intracellular calcium release assay, mt-clytin II with coelenterazine, Gα16-gust44 co-expressed
T1 sequence (P59540 1-309): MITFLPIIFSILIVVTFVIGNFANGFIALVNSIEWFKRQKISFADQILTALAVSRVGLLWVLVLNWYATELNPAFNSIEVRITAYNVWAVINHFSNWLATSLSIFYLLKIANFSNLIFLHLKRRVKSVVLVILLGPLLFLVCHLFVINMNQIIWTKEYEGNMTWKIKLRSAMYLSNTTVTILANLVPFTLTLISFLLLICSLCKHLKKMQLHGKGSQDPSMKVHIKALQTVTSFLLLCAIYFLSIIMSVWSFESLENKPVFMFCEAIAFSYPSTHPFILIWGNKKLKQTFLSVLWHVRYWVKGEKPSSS
Experimental: (§1) The bioluminescence-based assay was used to characterize the functional properties of various human TAS2Rs. For each TAS2R, one or more of its cognate agonists were tested against either the AD-293 or 293AD cell line, or both. Both cell lines were used because of their stronger adherent properties, which facilitate media changes on the day of the FLIPR assay. However, because both cell lines are generated differently, some disparities in gene expression capacities due to a myriad of factors could be reasonably expected. Consequently, some TAS2Rs may be well expressed in one cell line but not the other, and the ability of each cell line to express a particular TAS2R needs to be empirically evaluated. […] However, deviations between our experimental and published potency values for some ligands (i.e. TAS2R4: stevioside; TAS2R7: Mg^2+, Mn^2+, Zn^2+) were observed, which could be attributed to the use of a different assay format, readout and processing parameters, use of different cell lines with resultant potential differences in TAS2R expression levels, and quality and methodological differences in ligand preparations. […] A strength of the bioluminescence-based TAS2R assay is its capacity to generate greater assay spans than that of fluorescence-based assays, which could be largely attributed to the utilization of mt-clytin II as the calcium reporter. […]

TAS2R46 [2] = target: T1, TAS2R46; design: species or system 293AD; bioluminescence intracellular calcium release assay, mt-clytin II with coelenterazine, Gα16-gust44 co-expressed
Experimental: as §1

TAS2R5 = target: T2, TAS2R5 (Homo sapiens, UniProt Q9NYW4); design: bioluminescence intracellular calcium release assay, mt-clytin II with coelenterazine, Gα16-gust44 co-expressed; settings: 293AD cells
T2 sequence (Q9NYW4 1-299): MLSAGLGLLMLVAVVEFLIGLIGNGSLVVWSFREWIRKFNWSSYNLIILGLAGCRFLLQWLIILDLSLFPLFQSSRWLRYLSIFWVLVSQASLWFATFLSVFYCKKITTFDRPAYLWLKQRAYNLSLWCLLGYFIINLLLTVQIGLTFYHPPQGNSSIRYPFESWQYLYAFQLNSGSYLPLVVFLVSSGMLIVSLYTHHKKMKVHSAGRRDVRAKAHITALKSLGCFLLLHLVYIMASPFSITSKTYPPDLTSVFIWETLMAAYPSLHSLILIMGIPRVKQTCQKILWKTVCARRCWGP
Experimental: (§2) The bioluminescence-based assay was used to characterize the functional properties of various human TAS2Rs. For each TAS2R, one or more of its cognate agonists were tested against either the AD-293 or 293AD cell line, or both. Both cell lines were used because of their stronger adherent properties, which facilitate media changes on the day of the FLIPR assay. However, because both cell lines are generated differently, some disparities in gene expression capacities due to a myriad of factors could be reasonably expected. Consequently, some TAS2Rs may be well expressed in one cell line but not the other, and the ability of each cell line to express a particular TAS2R needs to be empirically evaluated. […] However, deviations between our experimental and published potency values for some ligands (i.e. TAS2R4: stevioside; TAS2R7: Mg^2+, Mn^2+, Zn^2+) were observed, which could be attributed to the use of a different assay format, readout and processing parameters, use of different cell lines with resultant potential differences in TAS2R expression levels, and quality and methodological differences in ligand preparations. Because potency values could be obtained that were consistent with the literature, or close to the reported minimal effective stimulatory concentration upon further testing of other TAS2R4/7 agonists, the deviation in EC50 values could be largely attributed to qualitative differences in the ligands (Supplementary Fig. S3). Calcium responses induced by the tested cognate agonists reflected specific TAS2R stimulation. […] Poor localization of TAS2Rs to the cell surface in heterologous systems was associated with diminished receptor signaling output and functionality. One of the more commonly used strategies to enhance the density of TAS2Rs at the cell surface involves fusing an N-terminal signal sequence of either the SST3, or Rho receptor to the TAS2R[24]. We adopted this approach, specifically co-expressing SST3-TAS2R with Gα16-gust44 chimera and mt-clytin II, to develop and validate a bioluminescence-based TAS2R intracellular calcium release assay. A strength of the bioluminescence-based TAS2R assay is its capacity to generate greater assay spans than that of fluorescence-based assays, which could be largely attributed to the utilization of mt-clytin II as the calcium reporter. Calcium-binding photoproteins in general are useful reporters for studying calcium-mediated signaling processes. […] Its fast calcium binding and dissociation kinetics render it a suitable indicator to report on swift, transient changes in calcium ion concentrations and study rapid receptor-ligand interactions. Mitochondrial targeting of clytin II was crucial to generating higher luminescence intensity than that of cytosol-localized clytin II, as inositol 1,4,5-triphosphate (IP3)-induced calcium release from the ER subsequent to ligand activation is thought to result in the formation of ER-proximal, calcium-rich microdomains that enabled the closely apposed mitochondria to sense a higher initial rise in calcium concentration than would be experienced by the bulk cytosol.

TAS2R39 = target: T3, TAS2R39 (Homo sapiens, UniProt P59534); design: bioluminescence intracellular calcium release assay, mt-clytin II with coelenterazine, Gα16-gust44 co-expressed
T3 sequence (P59534 1-338): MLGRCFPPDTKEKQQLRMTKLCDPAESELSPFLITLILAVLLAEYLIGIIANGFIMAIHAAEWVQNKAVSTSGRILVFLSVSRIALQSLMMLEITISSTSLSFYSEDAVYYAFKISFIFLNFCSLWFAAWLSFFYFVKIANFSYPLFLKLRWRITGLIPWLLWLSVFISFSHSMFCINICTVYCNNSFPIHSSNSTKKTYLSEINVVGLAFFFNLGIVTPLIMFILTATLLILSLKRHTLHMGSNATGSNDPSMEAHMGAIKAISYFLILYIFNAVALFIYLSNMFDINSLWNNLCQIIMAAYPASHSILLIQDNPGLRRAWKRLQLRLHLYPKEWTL
Experimental: as §2

| EC50 (TAS2R5) | EC50 (TAS2R39; 293AD cells) | EC50 (TAS2R39; AD-293 cells) | Compound | EC50 (TAS2R46 [1]) | EC50 (TAS2R46 [2]) |
| --- | --- | --- | --- | --- | --- |
|  |  |  | O=C1C[C@@H]2OCC=C3CN4CC[C@]56c7ccccc7N1[C@H]5[C@H]2[C@H]3C[C@H]46 [Strychnine] | 1.2 µM | 0.309 ± 0.073 µM |
| 47 ± 11 µM | 141 ± 44 µM | 362 ± 81 µM | O=C(O[C@@H]1Cc2c(O)cc(O)cc2O[C@@H]1c1cc(O)c(O)c(O)c1)c1cc(O)c(O)c(O)c1 [Epigallocatechin gallate] |  |  |
